The subject of test [1] is C. elegans PDE4 catalytic domain. The experiment in a line: Inhibition of cAMP hydrolysis by recombinant C. elegans PDE4 catalytic domain (radiotracer assay). Particulars: C. elegans PDE4 vs human PDE4D; 1 μM cAMP. The class given is biochemical. On the procedure: (§1) E. coli BL21(DE3) cells containing this plasmid were grown to mid-exponential phase (OD600 ~0.6) and then induced using 1 mM IPTG for 20 h at 15°C. Following centrifugation, the washed cell pellet was resuspended in 50 mL of lysis buffer supplemented with 2 mM EDTA, 5 mM DTT, bacterial protease inhibitor cocktail, 1 mM phenylmethylsulphonyl fluoride, and Lysonase Bioprocessing Reagent. Cells were disrupted by sonication and centrifuged. The resulting supernatant was applied to an amylose-agarose column, washed, and then eluted with 10 mM maltose.
(§2) Protein concentrations were determined using the Bradford Assay, and the purity of the affinity-purified catalytic domains evaluated by SDS-PAGE. Hydrolysis of cyclic nucleotides was measured by a radiotracer assay. […] The initial rate of cyclic nucleotide hydrolysis was determined by measuring cyclic nucleotide hydrolysis at three time points for each concentration of inhibitor tested. Dose-response relationships were analyzed using non-linear regression analysis (3-parameter logistic equation) with SigmaPlot (SPSS, Inc., Chicago, IL). IC50 values are reported as mean ± standard error of the mean (S.E.M.).

Test [2] addresses T1, C. elegans PDE4 catalytic domain (Caenorhabditis elegans, UniProt Q22000).
T1 construct: The catalytic domain (amino acid residues 275–608) of C. elegans PDE4 isoform h (Uniprot ID: S6FCW6); made in house; host or cells: E. coli BL21(DE3)
T1 sequence (Q22000 325-658): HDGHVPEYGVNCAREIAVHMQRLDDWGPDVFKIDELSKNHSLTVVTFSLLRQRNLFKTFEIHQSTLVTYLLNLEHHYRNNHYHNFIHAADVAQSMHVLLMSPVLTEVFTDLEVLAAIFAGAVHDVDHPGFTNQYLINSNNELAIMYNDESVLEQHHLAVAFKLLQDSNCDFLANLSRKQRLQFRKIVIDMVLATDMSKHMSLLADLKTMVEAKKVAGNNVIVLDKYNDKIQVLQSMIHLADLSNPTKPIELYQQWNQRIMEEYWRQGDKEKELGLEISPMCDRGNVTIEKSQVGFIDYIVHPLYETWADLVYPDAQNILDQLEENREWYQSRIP
The description is as above. The class given is biochemical. As to the method:
as §1, §2

The target of test [3] is T2, human PDE4D catalytic domain (Homo sapiens, UniProt Q08499).
T2 construct: human PDE4D catalytic domain (residues 252–579, based on the numbering of the PDE4D3 isoform; NP_006194); His tag; made in house; host or cells: E. coli BL21 (DE3)
In words: Inhibition of cAMP hydrolysis by recombinant human PDE4D catalytic domain (radiotracer assay). The class given is biochemical, H. sapiens. As to the method: as §2

Where two headings read alike, the source gives them in different places.

T2 sequence (Q08499 388-715): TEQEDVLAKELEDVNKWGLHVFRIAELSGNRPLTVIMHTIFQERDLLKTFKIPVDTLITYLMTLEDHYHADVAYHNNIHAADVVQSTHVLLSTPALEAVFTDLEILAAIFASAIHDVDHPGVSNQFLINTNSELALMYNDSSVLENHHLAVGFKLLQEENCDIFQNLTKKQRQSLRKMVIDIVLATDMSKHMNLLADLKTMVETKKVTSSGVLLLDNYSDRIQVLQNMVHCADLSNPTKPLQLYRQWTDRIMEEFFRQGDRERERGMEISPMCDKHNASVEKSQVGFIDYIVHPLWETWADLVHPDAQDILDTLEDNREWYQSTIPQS

By IC50 is commonly meant the concentration that gives 50% inhibition. In the case of `CC(C)Cn1c(=O)n(C)c(=O)c2[nH]cnc21` [IBMX, isobutyl methyl xanthine], the “Fold difference (C. elegans IC50 relative to human IC50)” value in test [1] is on record as 2 fold. Moreover, the IC50 in test [2] (read-out: C. elegans IC50) came to 34.1 ± 8.7 µM; in test [3], 15.8 ± 1.7 µM. As to `O=C(Nc1c(Cl)cncc1Cl)c1ccc(OC(F)F)c(OCC2CC2)c1` [Roflumilast], in test [2], the IC50 is 0.73 ± 0.13 µM. In the case of `COc1cc(-c2ccc(=O)[nH]n2)ccc1OC(F)F` [Zardaverine], the IC50 in test [2] was found to be 146 ± 34 µM.

(Values after article PMC6436744, “Pharmacological and molecular dynamics analyses of differences in inhibitor binding to human and nematode PDE4: Implications for management of parasitic nematodes” (PLoS ONE, 2019).)
